Data reported in ChEMBL document CHEMBL1143392, “Synthesis and cyclooxygenase inhibition of various (aryl-1,2,3-triazole-1-yl)-methanesulfonylphenyl derivatives” (Bioorg Med Chem, 2009).

Assays:
[1] = biological target: Prostaglandin G/H synthase 1 (Homo sapiens, UniProt P23219); assay: Inhibition of COX1 by enzyme immunoassay
[2] = Selectivity index, ratio of IC50 for COX1 to IC50 COX2
[3] = biological target: T1, Prostaglandin G/H synthase 2 (Homo sapiens, UniProt P35354); assay: Inhibition of COX2 by enzyme immunoassay
T1 sequence (P35354 whole entry): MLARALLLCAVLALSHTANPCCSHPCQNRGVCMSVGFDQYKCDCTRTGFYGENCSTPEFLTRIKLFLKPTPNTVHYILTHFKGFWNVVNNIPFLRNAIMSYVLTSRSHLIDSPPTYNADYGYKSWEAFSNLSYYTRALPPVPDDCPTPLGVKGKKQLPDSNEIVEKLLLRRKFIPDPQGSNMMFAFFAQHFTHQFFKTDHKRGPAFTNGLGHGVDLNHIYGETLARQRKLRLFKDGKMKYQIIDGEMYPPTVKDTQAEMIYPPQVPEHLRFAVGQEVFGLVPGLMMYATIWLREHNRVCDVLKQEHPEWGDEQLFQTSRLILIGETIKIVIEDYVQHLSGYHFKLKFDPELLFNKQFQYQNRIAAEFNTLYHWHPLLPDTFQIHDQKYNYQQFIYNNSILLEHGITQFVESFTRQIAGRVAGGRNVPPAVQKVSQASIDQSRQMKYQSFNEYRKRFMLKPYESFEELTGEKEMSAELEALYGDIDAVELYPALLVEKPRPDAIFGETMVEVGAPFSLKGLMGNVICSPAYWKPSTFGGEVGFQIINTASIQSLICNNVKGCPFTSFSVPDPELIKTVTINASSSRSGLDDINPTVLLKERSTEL

Prostaglandin G/H synthase 1, sequence (P23219 whole entry): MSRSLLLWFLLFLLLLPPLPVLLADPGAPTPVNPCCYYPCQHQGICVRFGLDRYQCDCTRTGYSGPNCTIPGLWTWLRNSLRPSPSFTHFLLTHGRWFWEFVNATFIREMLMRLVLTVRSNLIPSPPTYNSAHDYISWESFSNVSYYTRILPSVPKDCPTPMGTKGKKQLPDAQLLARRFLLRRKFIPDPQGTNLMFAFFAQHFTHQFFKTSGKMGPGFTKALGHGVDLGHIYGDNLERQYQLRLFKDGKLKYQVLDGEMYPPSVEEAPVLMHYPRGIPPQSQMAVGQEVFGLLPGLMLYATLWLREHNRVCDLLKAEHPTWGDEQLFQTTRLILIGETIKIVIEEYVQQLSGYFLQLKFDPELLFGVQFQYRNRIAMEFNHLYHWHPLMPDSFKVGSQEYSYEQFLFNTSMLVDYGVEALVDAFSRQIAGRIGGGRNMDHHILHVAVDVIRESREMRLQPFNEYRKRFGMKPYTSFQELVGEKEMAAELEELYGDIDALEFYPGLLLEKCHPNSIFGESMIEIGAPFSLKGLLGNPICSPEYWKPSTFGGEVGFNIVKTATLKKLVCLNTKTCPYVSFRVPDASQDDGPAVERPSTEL

| Structure (SMILES) | IC50 [1] [nM] | Ratio IC50 [2] | IC50 [3] [nM] |
| --- | --- | --- | --- |
| COc1ccc(C2=C(c3ccc(S(C)(=O)=O)cc3)CCC2)cc1 | 5000 |  |  |
| CS(=O)(=O)c1ccc(-n2cc(-c3ccc(F)cc3)nn2)cc1 | 12500 | 59 | 210 |
| COc1ccc(-c2cn(-c3ccc(S(C)(=O)=O)cc3)nn2)cc1 | 10000 | 4 | 2500 |
| CS(=O)(=O)c1ccc(-n2cc(-c3ccccc3)nn2)cc1 | 20800 | 139 | 150 |
| COc1ccc(-c2cnnn2-c2ccc(S(C)(=O)=O)cc2)cc1 | 830 | 4.9 | 170 |
| CS(=O)(=O)c1ccc(-n2nncc2-c2ccc(F)cc2)cc1 | 910 | 30.3 | 30 |
| CN(C)c1ccc(-c2cn(-c3ccc(S(C)(=O)=O)cc3)nn2)cc1 | > 100000 |  | > 10000 |

Further compounds by falling IC50 [1], results first:

| IC50 [1] [nM] | Ratio IC50 [2] | IC50 [3] [nM] | Structure (SMILES) |
| --- | --- | --- | --- |
| 45000 | 18 | 2500 | Cc1ccc(-c2cn(-c3ccc(S(C)(=O)=O)cc3)nn2)cc1 |
| 12200 | 64 | 190 | CS(=O)(=O)c1ccc(-n2cc(-c3ccc(Cl)cc3)nn2)cc1 |
| 840 | 2.3 | 360 | CN(C)c1ccc(-c2cnnn2-c2ccc(S(C)(=O)=O)cc2)cc1 |
| 810 | 7.5 | 110 | CS(=O)(=O)c1ccc(-n2nncc2-c2ccccc2)cc1 |
| 780 | 6.5 | 120 | Cc1ccc(-c2cnnn2-c2ccc(S(C)(=O)=O)cc2)cc1 |
| 700 | 17.5 | 40 | CS(=O)(=O)c1ccc(-n2nncc2-c2ccc(Cl)cc2)cc1 |
